Tested on: L. acidophilus NCFM
Assay: RNA-seq transcriptional analysis of L. acidophilus NCFM growing on plant glycosides
Type: cell-based, Lactobacillus acidophilus
[1] = LBA1955 Transcription regulator family protein, COG K
[2] = gene LBA0046 (Hypothetical protein)
[3] = gene LBA0149 (Putative nucleotide-binding protein)
[4] = gene LBA0263 (Hypothetical protein)
[5] = gene LBA0282 (Hypothetical protein)
[6] = gene LBA0327 (Replication protein)
[7] = gene LBA0328 (Hypothetical protein)
[8] = gene LBA0330 (Hypothetical protein)
[9] = gene LBA0457 (Hypothetical protein)
[10] = gene LBA0485 (Hypothetical protein)
[11] = gene LBA0486 (Hypothetical protein)
[12] = gene LBA0487 (Hypothetical protein.)
[13] = gene LBA0492 (Hypothetical protein)
[14] = gene LBA0541 (Cadmium-transporting ATPase)
[15] = gene LBA0542 (Putative heavy-metal-transporting alpase)
[16] = gene LBA0543 (Hypothetical protein)
[17] = gene LBA0544 (Transcriptional regulator)
[18] = gene LBA0555 (Myosin-crossreactive antigen)
[19] = gene LBA0564 (HAD family hydrolase)
[20] = gene LBA0574 (ABC multi drug exporter)
[21] = gene LBA0575 (ABC multi drug exporter)
[22] = gene LBA0604 (Immunity protein)
[23] = gene LBA0605 (Putative hydrolase)
[24] = gene LBA0608 (Hypothetical protein)
[25] = gene LBA0631 (Hypothetical protein)
[26] = gene LBA0649 (Myosin-crossreactive antigen)
[27] = gene LBA0728 (Hypothetical protein LBA0728)
[28] = gene LBA1025 (Aldo/keto reductase family oxidoreductase)
[29] = gene LBA1026 (Aldo/keto reduetase family oxidoreductase)
[30] = gene LBA1206 (Hypothetical protein)
[31] = gene LBA1401 (Peroxidase (Npx))
[32] = gene LBA1435 (Hypothetical protein)
[33] = gene LBA1455 (Putative surface layer protein)
[34] = gene LBA1656 (Hypothetical protein)
[35] = gene LBA1675 (Hypothetical protein)
[36] = gene LBA1676 (ATP-dependent helicase)
[37] = gene LBA1683 (Putative magnesium-transporting atpase)
[38] = gene LBA1704 (N-Acetylmuramic acid-6-phosphate etherase)
[39] = gene LBA1740 (Hypothetical protein)
[40] = gene LBA1752 (Hypothetical protein)
[41] = gene LBA1769 (Hypothetical protein)
[42] = gene LBA1793 (Hypothetical protein)
[43] = gene LBA1869 (Beta-phosphoglueomutase)
[44] = gene LBA1895 (Hypothetical protein)

OC[C@H]1O[C@@H](O[C@H]2[C@H](O)[C@@H](O)[C@@H](O)O[C@@H]2CO)[C@H](O)[C@@H](O)[C@H]1O [Lac]
Log2 differential normalized TPM ratio compared to glucose (LBA1878 Glycerol kinase, COG C): 0
Transcripts per million (rpm) (LBA1878 Glycerol kinase, COG C): 8.9 rpm
Log2 differential normalized TPM ratio compared to glucose [1]: −0.4
Transcripts per million (rpm) [1]: 403.9 rpm
Log2 differential normalized TPM ratio compared to glucose [2]: 0.7
Transcripts per million (rpm) [2]: 506.3 rpm
Log2 differential normalized TPM ratio compared to glucose [3]: 0.8
Transcripts per million (rpm) [3]: 850.2 rpm
Log2 differential normalized TPM ratio compared to glucose [4]: 0.7
Transcripts per million (rpm) [4]: 27 rpm
Log2 differential normalized TPM ratio compared to glucose [5]: 0.6
Transcripts per million (rpm) [5]: 32.7 rpm
Log2 differential normalized TPM ratio compared to glucose [6]: 0.2
Transcripts per million (rpm) [6]: 9.5 rpm
Log2 differential normalized TPM ratio compared to glucose [7]: −0.1
Transcripts per million (rpm) [7]: 13.2 rpm
Log2 differential normalized TPM ratio compared to glucose [8]: 0.3
Transcripts per million (rpm) [8]: 26.6 rpm
Log2 differential normalized TPM ratio compared to glucose [9]: 1
Transcripts per million (rpm) [9]: 977.4 rpm
Log2 differential normalized TPM ratio compared to glucose [10]: 2.4
Transcripts per million (rpm) [10]: 1078 rpm
Log2 differential normalized TPM ratio compared to glucose [11]: 2.8
Transcripts per million (rpm) [11]: 1593.4 rpm
Log2 differential normalized TPM ratio compared to glucose [12]: 1.3
Transcripts per million (rpm) [12]: 82.6 rpm
Log2 differential normalized TPM ratio compared to glucose [13]: 2.4
Transcripts per million (rpm) [13]: 44.2 rpm
Log2 differential normalized TPM ratio compared to glucose [14]: 2
Transcripts per million (rpm) [14]: 167.4 rpm
Log2 differential normalized TPM ratio compared to glucose [15]: 2.2
Transcripts per million (rpm) [15]: 409.6 rpm
Log2 differential normalized TPM ratio compared to glucose [16]: 2.3
Transcripts per million (rpm) [16]: 345.9 rpm
Log2 differential normalized TPM ratio compared to glucose [17]: 2
Transcripts per million (rpm) [17]: 416.6 rpm
Log2 differential normalized TPM ratio compared to glucose [18]: 1.9
Transcripts per million (rpm) [18]: 165.8 rpm
Log2 differential normalized TPM ratio compared to glucose [19]: 0.5
Transcripts per million (rpm) [19]: 1.5 rpm
Log2 differential normalized TPM ratio compared to glucose [20]: 0.3
Transcripts per million (rpm) [20]: 109.5 rpm
Log2 differential normalized TPM ratio compared to glucose [21]: 0.2
Transcripts per million (rpm) [21]: 93 rpm
Log2 differential normalized TPM ratio compared to glucose [22]: 0.5
Transcripts per million (rpm) [22]: 20.8 rpm
Log2 differential normalized TPM ratio compared to glucose [23]: 1
Transcripts per million (rpm) [23]: 5.5 rpm
Log2 differential normalized TPM ratio compared to glucose [24]: 1.1
Transcripts per million (rpm) [24]: 75.1 rpm
Log2 differential normalized TPM ratio compared to glucose [25]: 3.1
Transcripts per million (rpm) [25]: 10677.4 rpm
Log2 differential normalized TPM ratio compared to glucose [26]: 0.7
Transcripts per million (rpm) [26]: 65.3 rpm
Log2 differential normalized TPM ratio compared to glucose [27]: 1.8
Transcripts per million (rpm) [27]: 8.5 rpm
Transcripts per million (rpm) (gene LBA0802 (Hypothetical protein)): 40.6 rpm
Log2 differential normalized TPM ratio compared to glucose (gene LBA0861 (Polyferredoxin)): 0.5
Transcripts per million (rpm) (gene LBA0861 (Polyferredoxin)): 272.1 rpm
Log2 differential normalized TPM ratio compared to glucose (gene LBA1023 (Oxidoreductase)): 0.3
Transcripts per million (rpm) (gene LBA1023 (Oxidoreductase)): 213.6 rpm
Log2 differential normalized TPM ratio compared to glucose [28]: 0
Transcripts per million (rpm) [28]: 31.7 rpm
Log2 differential normalized TPM ratio compared to glucose [29]: 0.4
Transcripts per million (rpm) [29]: 43.3 rpm
Log2 differential normalized TPM ratio compared to glucose (gene LBA1027 (Oxidoreductase)): 1.5
Transcripts per million (rpm) (gene LBA1027 (Oxidoreductase)): 1733.7 rpm
Log2 differential normalized TPM ratio compared to glucose [30]: 1.2
Transcripts per million (rpm) [30]: 302.8 rpm
Log2 differential normalized TPM ratio compared to glucose [31]: 2.1
Transcripts per million (rpm) [31]: 294.6 rpm
Log2 differential normalized TPM ratio compared to glucose [32]: 3.7
Transcripts per million (rpm) [32]: 57.4 rpm
Log2 differential normalized TPM ratio compared to glucose [33]: 1.6
Transcripts per million (rpm) [33]: 53.4 rpm
Log2 differential normalized TPM ratio compared to glucose (gene LBA1469 (UDP-glucose 4-epimerase)): 5
Log2 differential normalized TPM ratio compared to glucose [34]: 0.6
Transcripts per million (rpm) [34]: 30.6 rpm
Log2 differential normalized TPM ratio compared to glucose [35]: 1.4
Transcripts per million (rpm) [35]: 1127.6 rpm
Log2 differential normalized TPM ratio compared to glucose [36]: 1.2
Transcripts per million (rpm) [36]: 734.7 rpm
Log2 differential normalized TPM ratio compared to glucose [37]: −0.2
Transcripts per million (rpm) [37]: 14 rpm
Log2 differential normalized TPM ratio compared to glucose [38]: 0.6
Transcripts per million (rpm) [38]: 10.7 rpm
Log2 differential normalized TPM ratio compared to glucose [39]: 0.8
Transcripts per million (rpm) [39]: 31.5 rpm
Log2 differential normalized TPM ratio compared to glucose [40]: 0.8
Transcripts per million (rpm) [40]: 15.3 rpm
Log2 differential normalized TPM ratio compared to glucose [41]: 1.9
Transcripts per million (rpm) [41]: 5636.3 rpm
Log2 differential normalized TPM ratio compared to glucose [42]: 2.8
Transcripts per million (rpm) [42]: 117.6 rpm
Log2 differential normalized TPM ratio compared to glucose (gene LBA1796 (ABC exporter)): 2.5
Transcripts per million (rpm) (gene LBA1796 (ABC exporter)): 52.4 rpm
Log2 differential normalized TPM ratio compared to glucose [43]: 2.4
Transcripts per million (rpm) [43]: 43.9 rpm
Log2 differential normalized TPM ratio compared to glucose [44]: 0.2
Transcripts per million (rpm) [44]: 31.9 rpm
